Our source for the Drug uptake, Drug metabolism and inhibition values is ChEMBL document CHEMBL3879886, “Substantially pure 2-{[2-(2-Methylamino-Pyrimidin-4-YL)-1H-Indole-5-Carbonyl]-Amino}-3-Phenylpyridin-2-YL-Amino)-Propionic acid as an IkB kinase inhibitor” (2007).

The nature of data set [1]: Drug uptake in Hartley guinea pig plasma at 0.01 to 0.3 mg/kg administered via intra-tracheal instillation measured after 1 hr. Format: ADME, organism-based, Cavia porcellus. The conditions noted are these: in vivo, inhaled_or_intranasal.
Data set [2] can be described thus: Drug uptake in Hartley guinea pig lung at 0.3 mg/kg administered via intra-tracheal instillation measured after 1 hr. The data set is classed as ADME, organism-based, Cavia porcellus. Conditions: in vivo, inhaled_or_intranasal; call rule not given here.
Data set [3] in a line: Drug uptake in po dosed Hartley guinea pig plasma. The conditions noted are these: in vivo. The data set is classed as ADME, organism-based, Cavia porcellus.
A short description of data set [4]: Prodrug conversion in Hartley guinea pig lung assessed as formation of 2-{[2-(2-Methylamino-pyrimidin-4-yl)-lH-indole-5-carbo- nyl]-amino}-3-(phenyl-pyridin-2-yl-amino)-propionic acid at 0.01 to 0.3 administered via intra-tracheal instillation measured after 1 hr. The conditions noted are these: in vivo, inhaled_or_intranasal. The data set is classed as ADME, Cavia porcellus.

For the next data set, the system named is Mus musculus. Nature of the data set: In vivo inhibition of IKK2 in Balb/c mouse assessed as decrease in IL-1beta-induced NF-kappaB activation administered intranasally 0.5 to 1 hr prior to IL-1beta challenge measured after 1 to 24 hrs by luciferase reporter gene assay. The data set is classed as functional. On the technique in general: A reporter such as luciferase makes a cellular process visible.

Data set [5] can be described thus: Drug uptake in Hartley guinea pig lung at 0.01 to 0.3 mg/kg administered via intra-tracheal instillation measured after 1 hr. The data set is classed as ADME, organism-based, Cavia porcellus. Conditions: in vivo, inhaled_or_intranasal.

The structures appear in SMILES notation.

`CNc1nccc(-c2cc3cc(C(=O)N[C@@H](CN(c4ccccc4)c4ccccn4)C(=O)NOC)ccc3[nH]2)n1`: the Drug uptake entry in data set [1], in data set [2] and in data set [3] was “Active” each time. Besides, the Drug metabolism entry in data set [4] is “Metabolite_Detected”. In addition, the inhibition result in the data set with Mus musculus is “Dose-dependent effect”.

With `CNc1nccc(-c2cc3cc(C(=O)N[C@@H](CN(c4ccccc4)c4ccccn4)C(=O)O)ccc3[nH]2)n1`, the Drug uptake result in data set [1], in data set [5] and in data set [3] was “Active” throughout. Also, the inhibition entry in the data set with Mus musculus was “Dose-dependent effect”.
